Data set [1] concerns primary hepatocytes. Kind of data set: Glucose production by primary hepatocytes (glucagon or Ad-PGC-1α). Also on record: glucagon- and PGC-1α-mediated glucose production: dose or concentration left out as unconfirmed. Type of data set: cell-based, mouse. The protocol: For measurement of acetylation, gene expression and glucose production SR-18292 ([…]) was added to cells overnight and fresh compound was added the following day for additional 3 h before collecting the cells (for total of ˜18 h treatment). Where insulin and glucagon stimulation were performed, the medium was changed to starvation medium (DMEM, 0.2% BSA, 2 mM sodium pyruvate, and 1% penicillin/streptomycin) with fresh compound for the last 3 h and cells were stimulated with either 100 nM insulin or 200 nM glucagon for an extra 1.5 h. For glucose measurements following PGC-1α over expression cells were incubated for the last 3 h in glucose-free medium (phenol-red/glucose free DMEM, 0.2% BSA, 2 mM sodium pyruvate and 20 mM sodium lactate or 10 mM glycerol in case glycerol was used as substrate). For glucose measurements following glucagon stimulation cells were incubated for the last 4 h in the same glucose-free medium that also contained glucagon (200 nM). The glucose level in the medium was measured using a glucose assay kit from Eton Bioscience Inc. by adding […] of assay buffer to […] of medium followed by 15 min incubation at 37° C. Absorbance was measured at 490 nm.
PGC-1α activates hepatic gluconeogenic gene expression, and an increase in its acetylation status reduces expression of both Pck1 and G6pc genes (Rodgers et al., 2005; Yoon et al., 2001). […] Thus, a high-throughput screen with these 252 compounds at different doses was performed. Briefly, Hepatocytes were treated with forskolin for 1.5 hours to induce the expression of both Pck1 and G6pc genes, which mimics the fasting and PGC-1α-mediated gluconeogenic response. The dose response curves were used to calculate an inhibitory activity of the compounds by determining the difference in Ct values between compound treatment and forskolin control at each dose, and provided an estimated potency of the compounds in suppressing Pck1 and G6pc (FIGS. 4, 34). […] To specifically test the inhibitory activity of the remaining small molecule positive hits on PGC-1α-mediated glucose production, adenoviruses to ectopically express PGC-1α in primary hepatocytes were used. Similar to forskolin, PGC-1α overexpression induces gluconeogenic gene expression and promotes glucose release. Primary hepatocytes were treated with the chosen positive hit compounds that could suppress gluconeogenic gene expression, and the concentration of glucose released to the culture medium was measured.

Data set [2] has as its system primary hepatocytes. Kind of data set: Cytotoxicity determination in primary hepatocytes (Toxilight, MTT, total protein). Format: cell-based, mouse. The procedure: For cell viability determination using MTT, primary hepatocytes were seeded on a 96-well plate at 20,000 cells/well. The following day cells were treated at different doses, as indicated, for 18 h following similar protocol described above for drug treatment of primary hepatocytes. […] of MTT reagent (5 mg/ml) was then added to each well (n=4/dose) and cells were incubated for 1 h at 37° C. Medium was discarded and dye was extracted by adding […] DMSO to each well. For cytotoxicity determination using ToxiLight Non-destructive Cytotoxicity Bioassay, hepatocytes were seeded on a 6-well plate and treated with either SR-18292 ([…]) or cisplatin ([…]) for 18 h. […] of medium was collected and used to measure cellular toxicity by adding 100 of adenylate kinase detection reagent (AKDR) and incubating 5 min at RT before measuring luminescence.

Data set [3] relates to interaction of GCN5 with PGC-1α. The data set can be described thus: Co-immunoprecipitation of PGC-1α with GCN5 in U-2 OS cells. Format: cell-based. The conditions noted are these: endogenous and ectopically expressed GCN5. The protocol: For PGC-1α acetylation detection in hepatocytes cells were infected with Ad-PGC-1α and Ad-GCN5. Cells were collected in RIPA buffer (containing protease inhibitor cocktail, 5 mM NaF, 5 mM β-glycerophosphate, 10 mM nicotinamide, 1 mM DTT and 1 μM trichostatin A). FLAG-HA-PGC-1α was immunoprecipitated overnight at 4° C. with FLAG beads (Sigma A2220). For GCN5 interaction with PGC-1α, U-2 OS cells were infected with Ad-PGC-1α. Nuclear extracts were obtained by lysing cell in Buffer A (10 mM HEPES-KOH (pH 7.9), 10 mM KCl, 1.5 mM MgCl2, 0.5 mM DTT, 0.25% IGEPAL (v/v), 5 mM NaF, 5 mM β-glycerophosphate, 5 mM sodium butyrate and 10 mM nicotinamide), supplemented with Protease Inhibitor Cocktail. Once cytoplasmic fractions were separated, nuclear pellets were lysed in Buffer B (20 mM HEPES-KOH (pH 7.9), 125 mM NaCl, 1 mM EDTA, 1 mM DTT, 1% IGEPAL (v/v), 10% glycerol (v/v), 5 mM NaF, 5 mM β-glycerophosphate, 5 mM sodium butyrate and 10 mM nicotinamide), supplemented with Protease Inhibitor Cocktail. FLAG-HA-PGC-1α was immunoprecipitated with FLAG beads overnight at 4° C. All beads were washed at last 3 times in lysis buffer before eluting in sample loading buffer.

In another data set the test system is Pck1 and G6pc promoters. Kind of data set: Chromatin immunoprecipitation on Pck1 and G6pc in primary hepatocytes. Format: cell-based, mouse.
Data set [4] relates to DIO mice and Lep^ob/ob mice. The data set can be described thus: Glucose tolerance test (GTT). Format: in vivo. The procedure:
(§1) All mice were purchased from Jackson laboratories and housed under a 12 h light/12 h dark cycle at 22° C. Before handling, mice were allowed to acclimate for at least 1 week in our animal facility. For in vivo studies with DIO mice, males 6-8 weeks old were fed HFD for the indicated time. For drug administration, SR-18292 was re-suspended in a 10% DMSO/10% Tween80/80% PBS solution at a final concentration of 6-12 mg/ml. Metformin was re-suspended in the same solution at a 20 mg/ml concentration. SR-18292 was injected via I.P. for 3 days between 4-5 pm and food was removed on day 3 at 5 pm. […] Metformin was administered via oral gavage. […] Insulin tolerance test was performed following the same dosing protocol, but mice were fasted for 4 hours after the forth injection before performing the test. Insulin was injected via I.P. (0.5 U/Kg) and blood glucose was measured every 20 minutes. Glycemia was measured by tail bleed using a glucometer (OneTouch). For all experiments, age- and body weight-matched animals were used. For protein, RNA extracts and biochemistry studies, livers were removed following each experiment and snap frozen in liquid nitrogen. For information on number of animals in each experiment please refer to FIGS. 4, 5 and S5 legends. All studies were performed according to protocols approved by Beth Israel Deaconess Medical Center's Animal Care and Use Committee.

The subject of another data set is HFD fed mice. Kind of data set: Pyruvate tolerance test (PTT). Type of data set: in vivo. The conditions noted are these: HFD 17 weeks. The protocol:
as §1

Method for Pck1 and G6pc promoters: Primary hepatocytes were fixed in 1% formaldehyde for 10 minutes at room temperature. Crosslinking was quenched by adding glycine to a final concentration of 125 mM and rinsing twice with PBS. Cells were collected in PBS containing protease inhibitors followed by lysis in chromatin immunoprecipitation (ChIP) buffer (50 mM HEPES pH, 7.9; 140 mM NaCl; 1 mM EDTA; 1% Triton X-100; 0.1% NaDOC, 0.1% sodium dodecyl sulfate (SDS) and protease inhibitors). Chromatin was sheared by sonication with a Diagenode Biorupter for three cycles of 5 minutes (30 seconds on, 30 seconds off). Samples were clarified and chromatin immunoprecipitated overnight at 4° C. with the indicated antibody. Immune complexes were recovered with Protein A magnetic beads (Dynabeads; Novex, Life Technologies) preblocked with salmon sperm DNA (Invitrogen, Life Technologies). Following extensive washes, immunoprecipitated DNA was then isolated with a Chelex. Input DNA was prepared from 10% of respective chromatin prior to precipitation. Immunoprecipitated DNA and input DNA were analyzed by quantitative real-time PCR with primers specific for the indicated region. […] To further characterize the SR-18292-mediated inhibition of HNF4α transcriptional activity, chromatin immunoprecipitation (ChIP) assays were performed to examine the promoter occupancy of HNF4α on Pck1 and [MUT] promoters. Primary hepatocytes were treated with glucagon to induce gluconeogenic gene transcripts, and antibodies against HNF4α were used to IP chromatin fragments bound to this protein. […] Epigenetic changes accompany the response to glucagon in the fasted state, including an increase in activating H3K9 acetylation (H3K9Ac) and H3K4 trimethylation (H3K4Me3) of the Pck1 and [MUT] genes.

As to `Cc1ccc(CN(CC(O)COc2cccc3[nH]ccc23)C(C)(C)C)cc1` (centres unmarked) [SR-18292, 1-((1H-indol-4-yl)oxy)-3-(tert-butyl(4-methylbenzyl)amino)propan-2-ol], the “glucose release after short treatment” value in the data set on primary hepatocytes [1] (3 hr treatment) is on record as “no effect”. Also, the “glucose production from pyruvate and lactate or from glycerol as substrate” value in the data set with primary hepatocytes [1] (Ad-PGC-1α hepatocytes) is on record as “decreases glucose production”. Besides, in the data set on primary hepatocytes [1] (isolated hepatocytes), the “glucagon- and PGC-1α-mediated glucose production” value is on record as “significantly reduced”. Moreover, the “hepatocyte toxicity by cell viability or total protein levels” value in the data set with primary hepatocytes [2] (18 h treatment) is “did not cause hepatocyte toxicity”. In addition, the total protein levels result in the data set on primary hepatocytes [2] (n=3) was “not affected”. The “interaction of GCN5 with PGC-1α” value in data set [3] is on record as “increased”. Besides, in the data set on Pck1 and G6pc promoters, the FoxO1 promoter occupancy result is listed as “not altered”; the “H3K9Ac and H3K4Me3 marks on the Pck1 gene” value was “reduced H3K9Ac and H3K4Me3 marks”. For the same molecule, the “glucagon-induced Pck1 and G6pc promoter occupancy by HNF4α” value in the data set on Pck1 and G6pc promoters (glucagon 200 nM) is on record as “significantly reduced”. Besides, the glucose tolerance result in data set [4] (DIO mice) is on record as “significantly enhanced glucose tolerance”. In addition, in data set [4] (Lep^ob/ob mice), the glucose tolerance result was “significantly enhanced glucose tolerance”. Besides, the “insulin levels after GTT” value in data set [4] (mouse, in vivo) is given as “lower”. In the data set with HFD fed mice, the “defects in glucose production relative to metformin” value is “comparable to that mediated by metformin treatment” and the “glucose levels after pyruvate injection” value was “significantly reduced”.

For the origin of these results see US11247970B2, “Selective inhibition of gluconeogenic activity” (Dana-Farber Cancer Institute, Inc., priority 2017, dated 2022).
